Data taken from PMC5390315 (Scientific Reports, 2017).
Like-named read-outs stand apart in the source and are kept apart here.

Experiments:
HeLa = assay: Antiproliferative MTT assay, HeLa; type: cell-based, human; details: Homo sapiens, HeLa, 72 h, mean ± SE
Description: (§1) Human T-cell leukemia (Jurkat) and human B-cell leukemia (SEM and RS4;11) cells were grown in RPMI-1640 medium (Gibco, Milano, Italy). Breast adenocarcinoma (MCF-7), human cervix carcinoma (HeLa), human lung adenocarcinoma (A549) and human colon adenocarcinoma (HT-29) cells were grown in DMEM medium (Gibco, Milano, Italy), all supplemented with 115 units/mL penicillin G (Gibco, Milano, Italy), 115 μg/mL streptomycin (Invitrogen, Milano, Italy), and 10% fetal bovine serum (FBS; Invitrogen, Milano, Italy). Stock solutions (10 mM) of the different compounds were obtained by dissolving them in DMSO. Individual wells of a 96-well tissue culture microtiter plate were inoculated with 100 μL of complete medium containing 8 × 10^3 cells. The plates were incubated at 37 °C in a humidified 5% CO2 incubator for 18 h prior to the experiments. After medium removal, 100 μL of fresh medium containing the test compound at different concentrations was added to each well in triplicate and incubated at 37 °C for 72 h. The percentage of DMSO in the medium never exceeded 0.25%. This was also the maximum DMSO concentration in all cell-based assays described below.

A549 = assay: Antiproliferative MTT assay, A549; type: cell-based, human; details: Homo sapiens, A549, 72 h, mean ± SE
Description: as §1

HT-29 = assay: Antiproliferative MTT assay, HT-29; type: cell-based, human; details: Homo sapiens, HT-29, 72 h, mean ± SE
Description: as §1

MCF-7 = assay: Antiproliferative MTT assay, MCF-7; type: cell-based, human; details: Homo sapiens, MCF7, 72 h, mean ± SE
Description: as §1

Jurkat = assay: Antiproliferative MTT assay, Jurkat; type: cell-based, human; details: Homo sapiens, Jurkat, 72 h, mean ± SE
Description: as §1

RS 4;11 = assay: Antiproliferative MTT assay, RS 4;11; type: cell-based, human; details: Homo sapiens, RS4-11, 72 h, mean ± SE
Description: as §1

SEM cells = assay: Antiproliferative MTT assay, SEM; type: cell-based, human; details: Homo sapiens, 72 h, mean ± SE
Description: as §1

[1] = tested on: PBL not stimulated with PHA; assay: Cytotoxicity in resting peripheral blood lymphocytes; type: cell-based; details: Homo sapiens, Lymphocyte, 72 h, MTT, mean ± SEM, read-out: IC50 PBLresting
Description: (§2) Peripheral blood lymphocytes (PBL) from healthy donors were obtained from human peripheral blood (leucocyte rich plasma- buffy coats) from healthy volunteers using the Lymphoprep (Fresenius KABI Norge AS) gradient density centrifugation.
(§3) After extensive washing, cells were resuspended (1.0 × 10^6 cells/mL) in RPMI-1640 with 10% FBS and incubated overnight. For cytotoxicity evaluations in proliferating PBL cultures, non-adherent cells were resuspended at 5 × 10^5 cells/mL in growth medium, containing 2.5 μg/mL PHA (Irvine Scientific). Different concentrations of the test compounds were added, and viability was determined 72 h later by the MTT test. For cytotoxicity evaluations in resting PBL cultures, non-adherent cells were resuspended (5 × 10^5 cells/mL) and treated for 72 h with the test compounds, as described above.

PBL stimulated with PHA = assay: Cytotoxicity in PHA-stimulated peripheral blood lymphocytes; type: cell-based; details: Homo sapiens, Lymphocyte, 72 h, MTT, mean ± SEM, read-out: IC50 PBLPHA
Description: as §2, §3

HUVECs [2] = assay: Cytotoxicity in HUVECs; type: cell-based; details: Homo sapiens, HUVEC; primary HUVECs
Description: (§4) HUVECs were prepared from human umbilical cord veins, as previously described. The adherent cells were maintained in M200 medium supplemented with LSGS (Low Serum Growth Supplement), containing FBS, hydrocortisone, hEGF, bFGF, heparin, gentamycin/amphotericin (Life Technologies, Monza, Italy). Once confluent, the cells were detached by a trypsin–EDTA solution and used in experiments from the first to sixth passages.

bovine brain tubulin = assay: Inhibition of tubulin polymerization; type: biochemical; details: tubulin at 10 μM; read-out: Tubulin assembly IC50 ± S.D
Description: (§5) To evaluate the effect of the compounds on tubulin assembly in vitro[41], varying concentrations of compounds were preincubated with 10 μM bovine brain tubulin in 0.8 M monosodium glutamate (pH adjusted to 6.6 with HCl in a 2.0 M stock solution) at 30 °C and then cooled to 0 °C. After addition of 0.4 mM GTP, the mixtures were transferred to 0 °C cuvettes in a recording spectrophotometer and warmed to 30 °C. Tubulin assembly was followed turbidimetrically at 350 nm. […] The capacity of the test compounds to inhibit colchicine binding to tubulin was measured as described, except that the reaction mixtures contained 1 μM tubulin, 5 μM [^3H]colchicine and 1 or 5 μM test compound.

tubulin = assay: Inhibition of [3H]colchicine binding to tubulin; details: tubulin 1 μM, [3H]colchicine 5 μM
Description: as §5

HUVECs [3] = assay: HUVEC scratch wound motility assay; type: cell-based, human
Description: as §4
The motility assay for HUVECs was based on “scratch” wounding of a confluent monolayer. Briefly, HUVECs (1x10^5) were seeded onto 6-well plates coated with 0.1% collagen type I (BD Biosciences, Italy) in complete medium until a confluent monolayer was formed. The cells were wounded using a pipette tip, and wells were washed with PBS to remove undetached cells. Then, the cells were treated with the test compounds, and, at different times from the scratch, the cells were photographed under a light microscope. At all indicated time points, the wound width was measured in four areas and compared with the initial width.

HUVECs [4] = assay: Disruption of capillary-like tubes on Matrigel; type: cell-based, human; details: 24 h
Description: as §4
Matrigel matrix (Basement Membrane Matrix, BD Biosciences, Italy) was kept at 4 °C for 3 h, when 230 μL of Matrigel solution was added to each well of a 24-well plate. After gelling at 37 °C for 30 min, gels were overlaid with 500 μL of medium containing 6 × 10^4 HUVECs. The cells were incubated over Matrigel for 6 h to allow capillary tubes to form. Different concentrations of test compound were added in the cultures and incubated for different times, and the disappearance of existing vasculature was monitored and photographed (five fields for each well: the four quadrants and the center) at a 10x magnification. Phase contrast images were recorded using a digital camera and saved as TIFF files. Image analysis was carried out using ImageJ image analysis software, and dimensional (percent area covered by HUVECs and total length of HUVECs network per field) and topological parameters (number of meshes and branching points per field) were determined. Values were expressed as percent change from control cultures grown with complete medium.

[5] = tested on: panel of seven human tumor cell lines; assay: Antiproliferative activity, range over panel of seven human tumor cell lines; type: cell-based; details: read-out: IC50 values, range over the cell line panel
Description: as §1

## CCOc1ccc(-c2nc(C)oc2-c2cc(OC)c(OC)c(OC)c2)cc1 [Compound 5f, 4-(4-Ethoxyphenyl)-5-(3,4,5-trimethoxyphenyl)-2-methyloxazole]
HeLa
  IC50: 2 ± 0.8 nM
A549
  IC50: 1.5 ± 0.44 nM
HT-29
  IC50: 1.9 ± 0.8 nM
MCF-7
  IC50: 0.4 ± 0.08 nM
Jurkat
  IC50: 50.7 ± 10.8 nM
RS 4;11
  IC50: 11.9 ± 6.3 nM
SEM cells
  IC50: 13.3 ± 4.2 nM
[1]
  IC50: 34.5 ± 4.5 µM
PBL stimulated with PHA
  IC50: 17.7 ± 2.1 µM
HUVECs [2]
  IC50: > 100 µM
Bovine brain tubulin
  IC50: 1300 ± 100 nM
tubulin
  Colchicine binding % inhibition ± S.D, 5 μM drug: 72 ± 2%
HUVECs [3]; 100 nM, 6 h and 24 h
  HUVEC cell migration (wound healing): significantly reduced
HUVECs [4]; 100 nM (highest concentration)
  antivascular effect on Matrigel preformed tubular structures: did not show a significant antivascular effect
other
  melting point: 116 to 118 °C

## COc1cc(-c2nc(C)oc2-c2ccc3ccccc3c2)cc(OC)c1OC [Compound 4a, 4-(3,4,5-Trimethoxyphenyl)-2-methyl-5-(naphthalen-3-yl)oxazole]
HeLa
  IC50: 2.1 ± 0.5 nM
A549
  IC50: 12.6 ± 5.4 nM
HT-29
  IC50: 0.5 ± 0.1 nM
MCF-7
  IC50: 1.1 ± 0.5 nM
Jurkat
  IC50: 73.2 ± 5.2 nM
RS 4;11
  IC50: 14.3 ± 6.2 nM
SEM cells
  IC50: 40.2 ± 11 nM
[1]
  IC50: 15.5 ± 1.5 µM
PBL stimulated with PHA
  IC50: 21.1 ± 1.2 µM
HUVECs [2]
  IC50: > 100 µM
Bovine brain tubulin
  IC50: 1200 ± 100 nM
tubulin
  Colchicine binding % inhibition ± S.D, 1 μM drug: 47 ± 0.8%
  Colchicine binding % inhibition ± S.D, 5 μM drug: 74 ± 5%
[5]; Homo sapiens
  IC50: 0.5 to 73.2 nM
other
  melting point: 104 to 116 °C

## COc1ccc(/C=C\c2cc(OC)c(OC)c(OC)c2)cc1O [CA-4, combretastatin A-4, reference compound]
HeLa
  IC50: 4 ± 0.1 nM
Jurkat
  IC50: 5 ± 0.6 nM
RS 4;11
  IC50: 0.8 ± 0.2 nM
SEM cells
  IC50: 5 ± 0.1 nM
Bovine brain tubulin
  IC50: […]
tubulin
  Colchicine binding % inhibition ± S.D, 1 μM drug: 93 ± 0.8%
[5]
  IC50: 0.8 to 3100 nM
HUVECs [3]; 10 nM, 6 and 24 h
  HUVEC cell migration (wound healing): […]
HUVECs [4]; 10 nM
  antivascular effect on Matrigel preformed tubular structures: significant antivascular activity
